Measurements reported in patent US20240391882A1 (Mirati Therapeutics, Inc., priority 2023, published 2024).

What was measured:
[1] = system: T47D (PI3Kα H1047R mutant) cells; assay: Cell viability (CellTiter-Glo 2.0) in T47D cells; format: cell-based; conditions: Homo sapiens, T47D, 72 h, approximately 72 hours
In short: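 SKBR3 or T47D cells, 1000 per well, were seeded overnight and then exposed ~72 h at 37° C to 10 concentrations of compound, 1:4 dilutions from 10 μm. Viability read by CellTiter-Glo luminescence as percent of vehicle; IC50 from four-parameter variable-slope fit.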

[2] = system: SKBR3 (PI3Kα wild type) cells; assay: Cell viability (CellTiter-Glo 2.0) in SKBR3 cells; format: cell-based; conditions: Homo sapiens, SK-BR-3; SKBR3 (PI3Kα wild type) cells, approximately 72 hours, CellTiter-Glo 2.0; read-out: SKBR3 (WT) Viability IC50
Protocol: This Example illustrates that representative compounds of the invention decrease the viability of cells.
The ability of a compound of Formula (I) to decrease the viability of cells was measured using CellTiter-Glo 2.0 (CTG) Luminescent Cell Viability Assay (#G9241) obtained from Promega (Madison, WI).
To prepare assay plates for viability assays, cells were trypsinized, resuspended in fresh media, and viable cells were counted utilizing trypan blue exclusion. T47D, SKBR3, or MKN1 cells were seeded at 1000 cells in 30 μl per well in a solid white flat bottom 384 cell culture plate (Perkin Elmer #6007680) and incubated at 37° C. overnight.
Assay day 1, cells were dosed using an Echo Liquid Handler (Beckman Coulter) with compounds at a 10 μm starting concentration and serially diluted (1:4) for a total of 10 concentrations. Cells were incubated for approximately 72 hours with the compounds (solubilized in DMSO) at 37° C. After 72 hours of treatment, cell plates were equilibrated to room temperature before adding 15 μl of CTG to each well, plates were then covered in aluminum foil to protect from light, incubated at room temperature for 30 minutes on a microtiter plate shaker, and luminescence readings were collected using a CLARIOstar microplate reader (BMG Labtech, Germany). Percent of vehicle control values were plotted as log(inhibitor) vs. response—Variable slope (four parameters) for curve fitting and IC50 values were determined using XLfit.

SMILES | IC50 [1] [nM] | IC50 [2] [nM]
Cc1cc([C@@H](C)Nc2ccccc2C(=O)O)c2nc(N3CCC(F)(F)[C@H](C)C3)c(C#N)nc2c1 [Example 79B, 2-(((R)-1-(2-cyano-3-((R)-4,4-difluoro-3-methylpiperidin-1-yl)-7-methylquinoxalin-5-yl)ethyl)amino)benzoic acid] | 176 | > 10000
CNC(=O)c1ccccc1N[C@H](C)c1cc(C)cc2nc(C#N)c(N3CCOCC3)nc12 [Example 856, (R)-2-((1-(2-cyano-7-methyl-3-morpholinoquinoxalin-5-yl)ethyl)amino)-N-methylbenzamide] | 3440 | 3560
Cc1cc([C@@H](C)Nc2ccc(Cl)nc2C(=O)O)c2nc(N3CCc4ccccc4C3)c(C#N)nc2c1 [Example 83, (R)-6-chloro-3-((1-(2-cyano-3-(3,4-dihydroisoquinolin-2(1H)-yl)-7-methylquinoxalin-5-yl)ethyl)amino)picolinic acid] | 60.7 | > 10000
Cc1cc([C@@H](C)Nc2ccccc2C(=O)O)c2nc(N3CC4(COC4)C3)c(C#N)nc2c1 [Example 59, (R)-2-((1-(2-cyano-7-methyl-3-(2-oxa-6-azaspiro[3.3]heptan-6-yl)quinoxalin-5-yl)ethyl)amino)benzoic acid] | 140 | > 10000
Cc1cc([C@@H](C)Nc2ccccc2C(=O)O)c2nc(N3CCC(F)(F)[C@@H](C)C3)c(C#N)nc2c1 [Example 79A, 2-(((R)-1-(2-cyano-3-((S)-4,4-difluoro-3-methylpiperidin-1-yl)-7-methylquinoxalin-5-yl)ethyl)amino)benzoic acid] | 252 | > 10000
Cc1cc([C@@H](C)Nc2ccccc2-c2nnn[nH]2)c2nc(N3CCOCC3)c(C#N)nc2c1 [Example 852, (R)-5-(1-((2-(1H-tetrazol-5-yl)phenyl)amino)ethyl)-7-methyl-3-morpholinoquinoxaline-2-carbonitrile] | 1440 | > 10000
Cc1cc([C@@H](C)Nc2ccc(Cl)nc2C(=O)O)c2nc(N3CC4CC3C(F)(F)C4)c(C#N)nc2c1 (single isomer, unassigned) [Example 11] | 64 | > 10000
Cc1cc([C@@H](C)Nc2ccc(Cl)nc2C(=O)O)c2nc(N3CCC(S(C)(=O)=O)CC3)c(C#N)nc2c1 [Example 106, (R)-6-chloro-3-((1-(2-cyano-7-methyl-3-(4-(methylsulfonyl)piperidin-1-yl)quinoxalin-5-yl)ethyl)amino)picolinic acid] | 98.1 | > 10000
Cc1cc([C@@H](C)Nc2ccc(Cl)nc2C(=O)O)c2nc(N3CCC(F)(F)CC3)c(C3CC3)nc2c1 [Example 48, (R)-6-chloro-3-((1-(2-cyclopropyl-3-(4,4-difluoropiperidin-1-yl)-7-methylquinoxalin-5-yl)ethyl)amino)picolinic acid] | 95.3 | > 10000
Cc1cc([C@@H](C)Nc2ccc(Cl)nc2C#N)c2nc(N3CCOCC3)c(C#N)nc2c1 [Example 855, (R)-5-(1-((6-chloro-2-cyanopyridin-3-yl)amino)ethyl)-7-methyl-3-morpholinoquinoxaline-2-carbonitrile] | 1080 | 6900
CO[C@@H]1CCN(c2nc3c([C@@H](C)Nc4ccc(Cl)nc4C(=O)O)cc(C)cc3nc2C#N)C1 (single isomer, unassigned) [Example 110A] | 298 | > 10000
Cc1cc([C@@H](C)Nc2ccc(Cl)nc2C(=O)O)c2nc(NCC3(C)CC3(F)F)c(C#N)nc2c1 (stereo partly drawn) [Example 74, 6-chloro-3-(((1R)-1-(2-cyano-3-(((2,2-difluoro-1-methylcyclopropyl)methyl)amino)-7-methylquinoxalin-5-yl)ethyl)amino)picolinic acid] | 95 | > 10000
Cc1cc([C@@H](C)Nc2ccccc2C(=O)O)c2nc(N3CCC(C)(C(F)(F)F)CC3)c(C#N)nc2c1 [Example 65, (R)-2-((1-(2-cyano-7-methyl-3-(4-methyl-4-(trifluoromethyl)piperidin-1-yl)quinoxalin-5-yl)ethyl)amino)benzoic acid] | 456 | > 10000
Cc1cc([C@@H](C)Nc2ccccc2C(=O)O)c2nc(N3CCc4cc(F)ccc4C3)c(C#N)nc2c1 [Example 88, (R)-2-((1-(2-cyano-3-(6-fluoro-3,4-dihydroisoquinolin-2(1H)-yl)-7-methylquinoxalin-5-yl)ethyl)amino)benzoic acid] | 365 | > 10000

Further lines, results first:

IC50 [1] [nM] | IC50 [2] [nM] | SMILES
2680 | 6230 | Cc1cc([C@@H](C)Nc2scnc2C(=O)O)c2nc(N3CCC(F)(F)CC3)c(C#N)nc2c1 [Example 39, (R)-5-((1-(2-cyano-3-(4,4-difluoropiperidin-1-yl)-7-methylquinoxalin-5-yl)ethyl)amino)thiazole-4-carboxylic acid]
52 | 4380 | Cc1cc([C@@H](C)Nc2ccc(Cl)nc2-c2nnn[nH]2)c2nc(N3CCOCC3)c(C#N)nc2c1 [Example 854, (R)-5-(1-((6-chloro-2-(1H-tetrazol-5-yl)pyridin-3-yl)amino)ethyl)-7-methyl-3-morpholinoquinoxaline-2-carbonitrile]
71.6 | > 10000 | Cc1cc([C@@H](C)Nc2ccc(Cl)nc2C(=O)O)c2nc(N3CC4CC3C(F)(F)C4)c(C#N)nc2c1 (single isomer, unassigned) [Example 10]
21.1 | > 10000 | Cc1cc([C@@H](C)Nc2ccc(Cl)nc2C(=O)O)c2nc(N3CC4(COC4)C3)c(C#N)nc2c1 [Example 60, (R)-6-chloro-3-((1-(2-cyano-7-methyl-3-(2-oxa-6-azaspiro[3.3]heptan-6-yl)quinoxalin-5-yl)ethyl)amino)picolinic acid]
96.3 | > 10000 | CO[C@H]1CCN(c2nc3c([C@@H](C)Nc4ccc(Cl)nc4C(=O)O)cc(C)cc3nc2C#N)C1 (single isomer, unassigned) [Example 110B]
126 | 7060 | Cc1cc([C@@H](C)Nc2ccc(Cl)nc2C(=O)O)c2nc(N3CCC(F)(F)[C@H](C)C3)c(C#N)nc2c1 [Example 78A, 6-chloro-3-(((R)-1-(2-cyano-3-((R)-4,4-difluoro-3-methylpiperidin-1-yl)-7-methylquinoxalin-5-yl)ethyl)amino)picolinic acid]
77 | 8610 | Cc1cc([C@@H](C)Nc2ccc(Cl)nc2C(=O)O)c2nc(NC3CC(F)(F)C3)c(C#N)nc2c1 [Example 77, (R)-6-chloro-3-((1-(2-cyano-3-((3,3-difluorocyclobutyl)amino)-7-methylquinoxalin-5-yl)ethyl)amino)picolinic acid]
88.7 | 9250 | Cc1cc([C@@H](C)Nc2ccc(Cl)nc2C(=O)O)c2nc(N3CCc4cc(F)ccc4C3)c(C#N)nc2c1 [Example 87, (R)-6-chloro-3-((1-(2-cyano-3-(6-fluoro-3,4-dihydroisoquinolin-2(1H)-yl)-7-methylquinoxalin-5-yl)ethyl)amino)picolinic acid]
96.3 | > 10000 | CO[C@@H]1CCN(c2nc3c([C@@H](C)Nc4ccccc4C(=O)O)cc(C)cc3nc2C#N)C1 (single isomer, unassigned) [Example 72B]
4340 | > 10000 | Cc1cc([C@@H](C)Nc2ccccc2C#N)c2nc(N3CCOCC3)c(C#N)nc2c1 [Example 853, (R)-5-(1-((2-cyanophenyl)amino)ethyl)-7-methyl-3-morpholinoquinoxaline-2-carbonitrile]
324 | > 10000 | Cc1cc([C@@H](C)Nc2ccccc2C(=O)O)c2nc(NC3CC(F)(F)C3)c(C#N)nc2c1 [Example 76, (R)-2-((1-(2-cyano-3-((3,3-difluorocyclobutyl)amino)-7-methylquinoxalin-5-yl)ethyl)amino)benzoic acid]
276 | > 10000 | Cc1cc([C@@H](C)Nc2ccccc2C(=O)O)c2nc(N3CCC(F)(F)C3)c(C#N)nc2c1 [Example 71, (R)-2-((1-(2-cyano-3-(3,3-difluoropyrrolidin-1-yl)-7-methylquinoxalin-5-yl)ethyl)amino)benzoic acid]
78 | 7680 | Cc1cc([C@@H](C)Nc2ccc(Cl)nc2C(=O)O)c2nc(N3CCC(C)(C(F)(F)F)CC3)c(C#N)nc2c1 [Example 66, (R)-6-chloro-3-((1-(2-cyano-7-methyl-3-(4-methyl-4-(trifluoromethyl)piperidin-1-yl)quinoxalin-5-yl)ethyl)amino)picolinic acid]
63.2 | > 10000 | Cc1cc([C@@H](C)Nc2ccccc2C(=O)O)c2nc(N3CCc4ccncc4C3)c(C#N)nc2c1 [Example 89, (R)-2-((1-(2-cyano-3-(3,4-dihydro-2,7-naphthyridin-2(1H)-yl)-7-methylquinoxalin-5-yl)ethyl)amino)benzoic acid]
